# Positions count from the first letter of the chain named. Values joined by “and” are separate entries in the source; they are usually repeats but may differ in a detail not shown here. Equal entries are not always repeated. “Also recorded” adds a separate entry of the source. Where two headings read alike, the source gives them in different places.
# Tests used:
# McinOBP1-wt [1] = biological target: T1, McinOBP1-wt (Macrocentrus cingulum, UniProt X2D9T4); experiment: Competitive fluorescence binding assay, displacement of 1-NPN; conditions: for binding to McinOBP1-wt (in words): displacement of 1-NPN
# Experimental: (§1) Fluorescence binding assays were recorded on Shimadzu fluorescence spectrophotometer (Shimadzu, Japan) with a 1 cm light path quartz cuvette; both excitation and emission silts widths were 5 nm. The probe was excited at 337 nm and emission spectra were recorded between 350 and 500 nm. […] For determining the bound ligand from the intensity values of fluorescence emission assuming that the proteins were 100% active, with a stoichiometry of 1∶1 (protein:ligand) at saturation. The GraphPad Prism 5 (GraphPad Software, Inc.) was used to estimate the K1–NPN (KD of protein complex/1-NPN) values by nonlinear regression for a unique site of binding. Scatchard plots were used to linearize the curves.
# [2] = biological target: T2, McinOBP1-m1 (Val58 to alanine) (Macrocentrus cingulum, UniProt X2D9T4, V58A); experiment: as above
# T2 sequence (X2D9T4 21-140 V58A): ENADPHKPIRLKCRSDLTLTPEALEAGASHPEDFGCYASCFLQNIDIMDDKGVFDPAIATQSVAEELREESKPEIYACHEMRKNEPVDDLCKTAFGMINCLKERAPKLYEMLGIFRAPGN
# Text: (§2) The three mutants of McinOBP1, m1 (mutation of amino acid, valine to alanine at 58 position), m2 (mutation of amino acid, leucine to proline at 62 position) and m3 (mutation of amino acid, glutamic to alanine at 130 position), were developed using the kit of Quick-change lightning site-directed mutagenesis (Stratagene, La Jolla, CA, USA). The McinOBP1-wt/pGEM-T Easy construct was used as a template. The primers were designed manually and mutation sites are underlined as listed below.
# as §1
# [3] = biological target: T3, McinOBP1-m2 (Leu62 to proline) (Macrocentrus cingulum, UniProt X2D9T4, L62P); experiment: as above
# T3 sequence (X2D9T4 21-140 L62P): T2 sequence (X2D9T4 21-140 V58A) with A38V, L42P
# Text: as §2, §1
# [4] = biological target: T4, McinOBP1-m3 (Glu130 to alanine) (Macrocentrus cingulum, UniProt X2D9T4, E130A); experiment: as above
# T4 sequence (X2D9T4 21-140 E130A): T2 sequence (X2D9T4 21-140 V58A) with A38V, E110A
# Text: as §2, §1
# [5] = biological target: T2, McinOBP1-m1 (Val58 to alanine); experiment: Fluorescence binding of the probe 1-NPN (direct titration); conditions: 2 μM protein, pH 7.4
# Text: as §2, §1
# [6] = biological target: T3, McinOBP1-m2 (Leu62 to proline); experiment: as above; conditions: 2 μM protein, pH 7.4
# Text: as §2, §1
# [7] = biological target: T4, McinOBP1-m3 (Glu130 to alanine); experiment: as above; conditions: 2 μM protein, pH 7.4
# Text: as §2, §1
# McinOBP1-wt [8] = biological target: T1, McinOBP1-wt; experiment: as above; conditions: dissociation constant (KD) of 1-NPN, 2 μM protein, 50 mM Tris-HCl pH 7.4
# Experimental: as §1
# [9] = McinOBP1-wt, pH 7.4, calculated from IC50 and K1-NPN, read-out: KD (calculated dissociation constant)
# [10] = read-out: IC50 (ligand concentration displacing 50% of the fluorescence of the McinOBP1/1-NPN complex), McinOBP1-wt, pH 7.4, 2 μM 1-NPN
# [11] = McinOBP1-wt, pH 7.4, 2 μM 1-NPN
# [12] = McinOBP1-wt, pH 7.4, 2 μM 1-NPN, read-out: IC50 (given as dash)
# T1 sequence (X2D9T4 entry or part of it): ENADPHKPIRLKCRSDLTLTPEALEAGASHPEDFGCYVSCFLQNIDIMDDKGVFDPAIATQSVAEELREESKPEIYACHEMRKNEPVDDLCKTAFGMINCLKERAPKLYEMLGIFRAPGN
molecule,measurement,setting,value
O=Cc1ccccc1 [Benzaldehyde],IC50,McinOBP1-wt [1],17.9 µM
same,Kd,McinOBP1-wt [1],15.6 µM
C=CC(C)(O)CCC=C(C)C (centres unmarked) [Linalool],IC50,McinOBP1-wt [1],18.6 µM
same,Kd,McinOBP1-wt [1],16.2 µM
"C=C1CC/C=C(\C)CC[C@@H]2[C@@H]1CC2(C)C [Trans-Caryophelle, β- Caryophelle]",Kd,McinOBP1-wt [1]; [9],6.53 µM
same,IC50,McinOBP1-wt [1]; [10],7.51 µM
same,IC50,"[2]; McinOBP1-m1, read-out: IC50",70.7 µM
same,Kd,"[2]; McinOBP1-m1, read-out: KD",66.2 µM
same,IC50,"[3]; McinOBP1-m2, read-out: IC50",45 µM
same,Kd,"[3]; McinOBP1-m2, read-out: KD",42 µM
same,Kd,"[4]; McinOBP1-m3, listed as trans-caryophelle, read-out: KD",41.4 ± 5.38 µM
same,IC50,"[4]; McinOBP1-m3, read-out: IC50",47.8 µM
same,Kd,"[4]; McinOBP1-m3, read-out: KD",41.4 µM
CCCCCC/C=C/C=O [Trans-2-Nonenal],IC50,McinOBP1-wt [1],3.4 µM
same,Kd,McinOBP1-wt [1],2.96 µM
same,IC50,[2],13.6 µM
same,Kd,[2],12.7 µM
same,IC50,[3],50.6 µM
same,Kd,[3],47.2 µM
same,IC50,[4],76.7 µM
same,Kd,"[4]; KD, McinOBP1-m3",66.5 µM
"c1ccc(Nc2cccc3ccccc23)cc1 [1-NPN, N-phenyl-1-naphthylamine]",Kd,[5],14.6 ± 1.07 µM
same,Kd,[6],13.7 ± 0.71 µM
same,Kd,[7],6.53 ± 0.5 µM
same,Kd,McinOBP1-wt [8],~6.6 µM and 6.6 µM
C=CC(=C)CC/C=C(\C)CCC=C(C)C [β-Farnesene],Kd,McinOBP1-wt [1]; [9],24.8 µM
same,IC50,McinOBP1-wt [1]; [10],28.5 µM
Farnsene,Kd,McinOBP1-wt [1]; [9],8.93 µM
same,IC50,McinOBP1-wt [1]; [10],10.3 µM
C=C1CCC2CC1C2(C)C (stereo not drawn) [β-Pinene],IC50,McinOBP1-wt [1],12.7 µM
same,Kd,McinOBP1-wt [1],10.8 µM
CC(=O)/C=C/C1C(C)=CCCC1(C)C (stereo not drawn) [α-Ionone],IC50,McinOBP1-wt [1],12.1 µM
same,Kd,McinOBP1-wt [1],9.3 ± 0.38 µM
CC/C=C\CCO [Cis-3-Hexen-1-ol],IC50,McinOBP1-wt [1],4.61 µM
same,Kd,McinOBP1-wt [1],4 µM
same,IC50,[2],23.6 µM
same,Kd,[2],22.1 µM
same,IC50,[3],26.1 µM
same,Kd,[3],24.3 µM
same,IC50,[4],29.5 µM
same,Kd,"[4]; KD, McinOBP1-m3",25.6 µM
CCCCC/C=C/C=O [Trans-2-Octenal],IC50,McinOBP1-wt [1]; [11],15.7 µM
same,Kd,McinOBP1-wt [1]; [9],13.6 µM
CCCCCCCCCC=O [Decanal],binding to McinOBP1-wt (in words),McinOBP1-wt [1]; McinOBP1-wt,did not bind
same,binding to McinOBP1-wt (in words),"McinOBP1-wt [1]; McinOBP1-wt, listed as decanal",no binding affinity
same,IC50,McinOBP1-wt [1]; [12],> 50 µM
CCCCCCC=O [Heptanal],IC50,McinOBP1-wt [1]; [11],35.5 µM
same,Kd,McinOBP1-wt [1]; [9],30.9 µM
CCCCCCCCCCC=O [Undecanal],binding to McinOBP1-wt (in words),McinOBP1-wt [1]; McinOBP1-wt,did not bind; also recorded: no binding affinity
same,IC50,McinOBP1-wt [1]; [12],> 50 µM
CC/C=C\CCOC(C)=O [cis-3-hexenyl acetate],Kd,McinOBP1-wt [1]; [9],10.3 ± 0.71 µM
CC/C=C/CCOC(C)=O [Trans-3-Hexen-1-ol-Acetate],Kd,McinOBP1-wt [1]; [9],20.7 µM
same,IC50,McinOBP1-wt [1]; [10],23.9 µM
CC1=CCC2CC1C2(C)C (stereo not drawn) [α-pinene],IC50,McinOBP1-wt [1],17.8 µM
same,Kd,McinOBP1-wt [1],15.5 µM
"CCC(C)CCCC(C)C (centres unmarked) [2,6 dimethyl octane]",binding to McinOBP1-wt (in words),McinOBP1-wt [1]; McinOBP1-wt,no binding affinity
same,binding to McinOBP1-wt (in words),"McinOBP1-wt [1]; McinOBP1-wt, listed as 2, 6 dimethyl octane",did not bind
same,IC50,McinOBP1-wt [1]; [12],> 50 µM
C=C(C)[C@H]1CC=C(C)CC1 [Limonene],Kd,McinOBP1-wt [1]; [9],18.3 µM
same,IC50,McinOBP1-wt [1]; [10],21.1 µM
CCCCCCCCC=O [Nonanal],IC50,McinOBP1-wt [1]; [11],19.6 µM
same,Kd,McinOBP1-wt [1]; [9],17 µM
CCCCCc1ccco1 [2-Pentylfuran],IC50,McinOBP1-wt [1]; [11],19.1 µM
same,Kd,McinOBP1-wt [1]; [9],16.6 µM
CC(=O)/C=C/C1=C(C)CCCC1(C)C [β-Ionone],IC50,McinOBP1-wt [1],10.3 µM
same,Kd,McinOBP1-wt [1],8.97 µM
Hexenal,Kd,McinOBP1-wt [1]; [9],16.4 µM
same,IC50,McinOBP1-wt [1]; [10],18.9 µM

# — paper PMC3976273, “Three Amino Acid Residues Bind Corn Odorants to McinOBP1 in the Polyembryonic Endoparasitoid of Macrocentrus cingulum Brischke” (PLoS ONE, 2014)
